Earlier results on one molecule are cited in PubChem BioAssay AID1259409 (Chemical Carcinogenesis Research Information System (CCRIS), 2018).

SMILES strings stand for the structures.

For the series, the system named is rodent chemically induced tumor inhibition, incidence and multiplicity. As to the kind of experiment: CCRIS tumor inhibitor studies. Particulars: Carcinogen: 2,2'-DIHYDROXY-DI-N-PROPYLNITROSAMINE, 13147-25-6, Carcinogen: 2,2'-DIHYDROXY-DI-N-PROPYLNITROSAMINE, 13147-25-6, Dose [Inhibitor]: 0, Route [Inhibitor]: ORAL, Species: RAT, Strain/Sex: F344/MALE, Promoter: NONE USED.

Turning to `CCCCCCCCCCCCCCCC(=O)CC(=O)CCCCCCCCCCCCCCC`, the “tumour outcome (control, treated, inhibition, significance)” value runs as follows: (36909-64-6, N-ETHYL-N-HYDROXYETHYL- NITROSAMINE, 3,2'DIMETHYL-4-A, 36909-64-6, N-ETHYL-N-HYDROXYETHYL- NITROSAMINE, 3,2'DIMETHYL-4-A, 0.2% IN DIET BEGINNING 1 WK POST LAST CARCINOGEN DOSE AND CONTINUING FOR 32 WK (STUDY DURATION: 36 WK), Target Tissue: Type of Lesion: URINARY BLADDER: CARCINOMA, Dose [Carcinogen]: 1000 MG/KG IP DHPN 2X, 1500 MG/KG GAV EHEN 2X AND 75 MG/KG SC DMAB 3X GIVEN OVER THE INITIAL 3 WK AT 3-4 D INTERVALS) 1/14 (7%), 1/15 (7%), 0%, not significant; (53609-64-6, N-ETHYL-N-HYDROXYETHYL- NITROSAMINE, 3,2'-DIMETHYL-4-, 53609-64-6, N-ETHYL-N-HYDROXYETHYL- NITROSAMINE, 3,2'-DIMETHYL-4-, 0.2% IN DIET BEGINNING 1 WK POST LAST CARCINOGEN DOSE AND CONTINUING FOR 32 WK (STUDY DURATION: 36 WK), Target Tissue: Type of Lesion: LARGE INTESTINE: ADENOMA, Dose [Carcinogen]: 1000 MG/KG IP DHPN 2X, 1500 MG/KG GAV EHEN 2X AND 75 MG/KG SC DMAB 3X GIVEN OVER THE INITIAL 3 WK PERIOD AT 3-4 D INTERV) 7/14 (50%), 7,15 (47%), 6%, not calculated; (53609-64-6, N-ETHYL-N-HYDROXYETHYL- NITROSAMINE, 3,2'-DIMETHYL-4-, 53609-64-6, N-ETHYL-N-HYDROXYETHYL- NITROSAMINE, 3,2'-DIMETHYL-4-, 02% IN DIET BEGINNING 1 WK POST LAST CARCINOGEN DOSE AND CONTINUING FOR 32 WK (STUDY DURATION: 36 WK), Target Tissue: Type of Lesion: LUNG: CARCINOMA, Dose [Carcinogen]: 1000 MG/KG IP DHPN 2X , 1500 MG/KG GAV EHEN 2X AND 75 MG/KG SC DMAB 3X GIVEN OVER THE INITIAL 3 WK PERIOD AT 3-4 D INTER) 1/14 (7%), 3/15 (20%), -186%, not calculated; (53609-64-6, N-ETHYL-N-HYDROXYETHYL- NITROSAMINE, 3,2'DIMETHYL-4-A, 53609-64-6, N-ETHYL-N-HYDROXYETHYL- NITROSAMINE, 3,2'DIMETHYL-4-A, 0.2% IN DIET BEGINNING 1 WK POST LAST CARCINOGEN DOSE AND CONTINUING FOR 32 WK (STUDY DURATION: 36 WK), Target Tissue: Type of Lesion: LIVER: HEPATOCELLULAR CARCINOMA, Dose [Carcinogen]: 1000 MG/KG IP DHPN 2X, 1500 MG/KG GAV EHEN 2X AND 75 MG/KG SC DMAB 3X GIVEN OVER THE INITIAL 3 WK AT 3-4 D INTERVALS) 6/14 (43%), 1/15 (7%), 84%, p<0.05; (53609-64-6, N-ETHYL-N-HYDROXYETHYLNITROSAMINE, 3,2'-DIMETHYL-1,4-, 53609-64-6, N-ETHYL-N-HYDROXYETHYLNITROSAMINE, 3,2'-DIMETHYL-1,4-, 0.2% IN DIET FOR 4 WK BEGINNING 1 D PRIOR TO FIRST CARCINOGEN DOSE (STUDY DURATION: 36 WK), Target Tissue: Type of Lesion: KIDNEY: ADENOMA, Dose [Carcinogen]: 1000 MG/KG BW DHPN TWICE, 1500 MG/KG EHEN TWICE, 75 MG/KG BW DMAB 3 TIMES, SEQUENTIALLY OVER 3 WK) 6/10 (60%), 7/13 (54%), 10%, not significant; (53609-64-6, N-ETHYL-N-HYDROXYETHYLNITROSAMINE, 3,2'-DIMETHYL-1,4-, 53609-64-6, N-ETHYL-N-HYDROXYETHYLNITROSAMINE, 3,2'-DIMETHYL-1,4-, 0.2% IN DIET FOR 4 WK BEGINNING 1 D PRIOR TO FIRST CARCINOGEN DOSE (STUDY DURATION: 36 WK), Target Tissue: Type of Lesion: LUNG: ADENOMA, Dose [Carcinogen]: 1000 MG/KG BW DHPN TWICE, 1500 MG/KG EHEN TWICE, 75 MG/KG BW DMAB 3 TIMES, SEQUENTIALLY OVER 3 WK) 5/10 (50%), 6/13 (46%), 8%, not significant. Moreover, the “tumour outcome (control, treated, inhibition, significance)” value is, setting by setting: (53609-64-6, N-ETHYL-N-HYDROXYETHYLNITROSAMINE, 3,2'-DIMETHYL-4-AMINO-, 53609-64-6, N-ETHYL-N-HYDROXYETHYLNITROSAMINE, 3,2'-DIMETHYL-4-AMINO-, 0.2% IN DIET FOR 32 WK BEGINNING 1 WK POST CARCINOGEN TREATMENT (STUDY DURATION: 36 WK), Target Tissue: Type of Lesion: KIDNEY: ADENOMA, Dose [Carcinogen]: 1000 MG/KG BW DHPN TWICE, 1500 MG/KG BW EHEN TWICE, 75 MG/KG BW 3 TIMES ADMINISTERED OVER FIRST 3 WK) 6/14 (43%), 5/15 (33%), 23% , not significant; (53609-64-6, N-ETHYL-N-HYDROXYETHYLNITROSAMINE, 3,2'-DIMETHYL-4-AMINO-, 53609-64-6, N-ETHYL-N-HYDROXYETHYLNITROSAMINE, 3,2'-DIMETHYL-4-AMINO-, 0.2% IN DIET FOR 32 WK BEGINNING 1 WK POST CARCINOGEN TREATMENT (STUDY DURATION: 36 WK), Target Tissue: Type of Lesion: KIDNEY: NEPHROBLASTOMA, Dose [Carcinogen]: 1000 MG/KG BW DHPN TWICE, 1500 MG/KG BW EHEN TWICE, 75 MG/KG BW 3 TIMES ADMINISTERED OVER FIRST 3 WK) 2/14 (14%), 2/15 (13%), 7%, not significant; (53609-64-6, N-ETHYL-N-HYDROXYETHYLNITROSAMINE, 3,2'-DIMETHYL-4-AMINO-, 53609-64-6, N-ETHYL-N-HYDROXYETHYLNITROSAMINE, 3,2'-DIMETHYL-4-AMINO-, 0.2% IN DIET FOR 32 WK BEGINNING 1 WK POST CARCINOGEN TREATMENT (STUDY DURATION: 36 WK), Target Tissue: Type of Lesion: KIDNEY: TRANSITIONAL CELL CARCINOMA, Dose [Carcinogen]: 1000 MG/KG BW DHPN TWICE, 1500 MG/KG BW EHEN TWICE, 75 MG/KG BW 3 TIMES ADMINISTERED OVER FIRST 3 WK) 1/14 (7%), 1/15 (7%), 0%, not significant. Moreover, the outcome (53609-64-6, N-ETHYL-N-HYDROXYETHYL- NITROSAMINE, 3,2'-DIMETHYL-4-, 53609-64-6, N-ETHYL-N-HYDROXYETHYL- NITROSAMINE, 3,2'-DIMETHYL-4-, 0.2% IN DIET BEGINNING 1 WK POST LAST CARCINOGEN DOSE AND CONTINUING FOR 32 WK (STUDY DURATION: 36 WK), Target Tissue: Type of Lesion: URINARY BLADDER: PAPILLOMA, Dose [Carcinogen]: 1000 MG/KG IP DHPN 2X, 1500 MG/KG GAV EHEN 2X AND 75 MG/KG SC DMAB 3X GIVEN OVER THE INITIAL 3 WK PERIOD AT 3-4 D INTERV) is given as 0/14 (0%), 3/15 (20%), -100%, not calculated.
